Converted amounts (≈) assume the structure as drawn.
Test system: Acinetobacter baumannii
Test: Antibacterial activity against Acinetobacter baumannii R2889 assessed as inhibition of bacterial growth incubated for 24 hrs by broth dilution method
Assay type: functional

C=C(C)[C@@H]1CCC(C)=C[C@H]1c1c(OCCCNC(=N)N)cc(CCCCC)cc1OCCCNC(=N)N
MIC: 3.12 µg/mL (≈ 6.09 µM)
